Molecules are shown by their SMILES.

Experiment in all cases: IA-DTB cysteine engagement
Assay type in all cases: binding

The target of one test is T1, CBX1_C60 (Homo sapiens, UniProt P83916).
T1 construct: endogenous in cells; host or cells: 22Rv1
To be noted: 22Rv1 cells, 20 μM probe, 1 h, relative to DMSO. The procedure, abridged:
(§1)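 Cells were treated in situ with electrophilic probes, then lysed, and the lysates (2 mg/mL protein) were labeled with IA-DTB for 1 h at ambient temperature. After reduction, alkylation and trypsin digestion, labeled peptides were streptavidin-enriched, TMT-labeled and fractionated. Engagement ratios are probe vs DMSO reporter intensities, averaged across replicates.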

The target of another test is T2, LMNA_C570 (Homo sapiens, UniProt P02545).
T2 construct: endogenous in cells; host or cells: 22Rv1
T2 sequence (P02545 1-664): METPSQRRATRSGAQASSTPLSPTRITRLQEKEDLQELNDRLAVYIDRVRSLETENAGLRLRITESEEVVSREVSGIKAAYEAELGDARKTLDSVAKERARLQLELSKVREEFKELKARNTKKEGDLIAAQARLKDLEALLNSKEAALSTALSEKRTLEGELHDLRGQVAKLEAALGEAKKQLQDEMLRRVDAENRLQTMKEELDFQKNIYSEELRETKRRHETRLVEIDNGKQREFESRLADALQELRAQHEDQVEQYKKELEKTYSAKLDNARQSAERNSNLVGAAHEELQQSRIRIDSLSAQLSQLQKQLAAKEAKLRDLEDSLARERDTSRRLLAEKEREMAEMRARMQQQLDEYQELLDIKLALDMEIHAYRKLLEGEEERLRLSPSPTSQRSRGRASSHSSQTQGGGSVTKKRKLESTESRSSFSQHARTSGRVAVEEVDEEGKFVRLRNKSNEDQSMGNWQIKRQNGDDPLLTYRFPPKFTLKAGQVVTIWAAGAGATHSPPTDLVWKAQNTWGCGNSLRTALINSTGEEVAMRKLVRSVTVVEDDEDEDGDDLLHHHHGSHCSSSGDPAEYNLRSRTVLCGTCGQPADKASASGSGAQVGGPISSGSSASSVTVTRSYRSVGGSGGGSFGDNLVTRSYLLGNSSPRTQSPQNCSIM
The settings on record: 22Rv1 cells, 20 μM probe, 1 h, relative to DMSO. The method, boiled down: as §1

Another test deals with T3, REEP5_C18 (Homo sapiens, UniProt Q00765).
T3 construct: endogenous in cells; host or cells: 22Rv1
To be noted: 22Rv1 cells, relative to DMSO; for % engagement REEP5_C18: 20 μM probe, 1 h; for % engagement REEP5_18: 5 μM probe, 1 h (FIG. 5B). The method, boiled down:
as §1

For a further test, the target named is T4, ESRP1_C551 (Homo sapiens, UniProt Q6NXG1).
T4 construct: endogenous in cells; host or cells: 22Rv1
T4 sequence (Q6NXG1 1-681): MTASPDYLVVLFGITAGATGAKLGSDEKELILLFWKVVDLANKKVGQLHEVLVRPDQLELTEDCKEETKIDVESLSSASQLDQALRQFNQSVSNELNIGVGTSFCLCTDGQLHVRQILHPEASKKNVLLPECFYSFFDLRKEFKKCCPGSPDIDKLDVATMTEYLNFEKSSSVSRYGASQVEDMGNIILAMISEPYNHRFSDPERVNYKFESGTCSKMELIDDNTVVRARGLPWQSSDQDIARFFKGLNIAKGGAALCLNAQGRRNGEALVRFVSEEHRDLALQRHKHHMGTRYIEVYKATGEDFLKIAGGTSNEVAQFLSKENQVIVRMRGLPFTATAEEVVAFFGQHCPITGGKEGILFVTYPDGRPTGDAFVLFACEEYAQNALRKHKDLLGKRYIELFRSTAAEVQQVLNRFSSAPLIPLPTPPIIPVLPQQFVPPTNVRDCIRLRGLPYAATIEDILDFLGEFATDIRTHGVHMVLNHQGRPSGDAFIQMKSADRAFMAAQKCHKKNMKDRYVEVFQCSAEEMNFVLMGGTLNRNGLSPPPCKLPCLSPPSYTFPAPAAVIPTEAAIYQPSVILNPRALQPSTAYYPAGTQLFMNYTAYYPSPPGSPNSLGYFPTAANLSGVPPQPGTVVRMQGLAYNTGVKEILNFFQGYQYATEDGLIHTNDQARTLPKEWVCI
To be noted: 22Rv1 cells, 20 μM probe, 1 h, relative to DMSO. The method, boiled down:
as §1

T3 sequence (Q00765 whole entry): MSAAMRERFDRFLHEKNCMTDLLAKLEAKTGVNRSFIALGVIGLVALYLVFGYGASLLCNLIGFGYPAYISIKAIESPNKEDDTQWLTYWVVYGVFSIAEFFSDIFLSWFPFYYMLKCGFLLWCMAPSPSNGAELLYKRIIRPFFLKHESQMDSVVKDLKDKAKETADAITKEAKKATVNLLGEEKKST
T1 sequence (P83916 whole entry): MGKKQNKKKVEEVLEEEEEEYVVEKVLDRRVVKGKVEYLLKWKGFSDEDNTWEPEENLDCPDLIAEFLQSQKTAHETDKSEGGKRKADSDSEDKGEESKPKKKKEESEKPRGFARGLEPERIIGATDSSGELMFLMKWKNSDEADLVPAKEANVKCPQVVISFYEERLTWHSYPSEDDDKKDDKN

For the compound `C=CC(=O)N1C[C@@H](c2ccc(Br)cc2)[C@H]1C(=O)Nc1cccc2cccnc12` [MY-1A, (2S,3R)-1-acryloyl-3-(4-bromophenyl)-N-(quinolin-8-yl)azetidine-2-carboxamide], at CBX1_C60, the “% engagement CBX1_C60” value is reported as −11.5%. Besides, the “% engagement LMNA_C570” value on LMNA_C570 was determined as 75%. Besides, on REEP5_C18, the “% engagement REEP5_C18” value turned out to be 91.75%. For the same compound, at ESRP1_C551, the “% engagement ESRP1_C551” value was determined as 51%.
Regarding `C=CC(=O)N1C[C@H](c2ccc(Br)cc2)[C@@H]1C(=O)Nc1cccc2cccnc12` [MY-1B, (2R,3S)-1-acryloyl-3-(4-bromophenyl)-N-(quinolin-8-yl)azetidine-2-carboxamide], the “% engagement CBX1_C60” value on CBX1_C60 is −14.5%. The “% engagement LMNA_C570” value on LMNA_C570 was determined as 70.5%. Besides, at REEP5_C18, the “% engagement REEP5_18” value is 79.00% and the “% engagement REEP5_C18” value is on record as 97.5%. Further, the “% engagement ESRP1_C551” value at ESRP1_C551 is given as 73.5%.
Take `C=CC(=O)N1C[C@H](c2ccc(Br)cc2)[C@H]1C(=O)Nc1cccc2cccnc12` [MY-3A, (2S,3S)-1-acryloyl-3-(4-bromophenyl)-N-(quinolin-8-yl)azetidine-2-carboxamide]: the “% engagement CBX1_C60” value at CBX1_C60 is recorded as 14.5%. For the same compound, the “% engagement LMNA_C570” value at LMNA_C570 is 75.5%. Moreover, the “% engagement REEP5_C18” value at REEP5_C18 amounted to 88.25%. Besides, the “% engagement ESRP1_C551” value at ESRP1_C551 is 6.5%.
In the case of `C=CC(=O)N1C[C@H](c2ccc(Br)cc2)[C@H]1C(=O)Nc1cccc2cccnc12` [MY-3B, (2S,3S)-1-acryloyl-3-(4-bromophenyl)-N-(quinolin-8-yl)azetidine-2-carboxamide], on CBX1_C60, the “% engagement CBX1_C60” value is reported as 75%. The “% engagement LMNA_C570” value at LMNA_C570 is recorded as 70.5%. Further, on REEP5_C18, the “% engagement REEP5_C18” value was 91.75%. Further, the “% engagement ESRP1_C551” value at ESRP1_C551 was 69%.
As to `CC#CC(=O)N1C[C@H](c2ccc(Br)cc2)[C@@H]1C(=O)Nc1cccc2cccnc12` [MY-45B, (2R,3S)-3-(4-bromophenyl)-1-(but-2-ynoyl)-N-(quinolin-8-yl)azetidine-2-carboxamide], the “% engagement REEP5_18” value at REEP5_C18 was 22.75%.

For the origin of these results see patent publication US20250034216A1, “STEREOSELECTIVE COVALENT LIGANDS FOR ONCOGENIC AND IMMUNOLOGICAL PROTEINS” (The Scripps Research Institute, priority 2021, published 2025).
